Patent US8415359B2, “Phenylpyrrole derivative” (Daiichi Sankyo Company, Limited, priority 2008, dated 2013)

Molecular target: T1, human pancreatic GK (human glucokinase variant 1, GST-fused protein) (Homo sapiens, UniProt P35557)
T1 construct: made in house; host or cells: Escherichia coli (such as BL21 or JM109)
T1 sequence (P35557 1-465): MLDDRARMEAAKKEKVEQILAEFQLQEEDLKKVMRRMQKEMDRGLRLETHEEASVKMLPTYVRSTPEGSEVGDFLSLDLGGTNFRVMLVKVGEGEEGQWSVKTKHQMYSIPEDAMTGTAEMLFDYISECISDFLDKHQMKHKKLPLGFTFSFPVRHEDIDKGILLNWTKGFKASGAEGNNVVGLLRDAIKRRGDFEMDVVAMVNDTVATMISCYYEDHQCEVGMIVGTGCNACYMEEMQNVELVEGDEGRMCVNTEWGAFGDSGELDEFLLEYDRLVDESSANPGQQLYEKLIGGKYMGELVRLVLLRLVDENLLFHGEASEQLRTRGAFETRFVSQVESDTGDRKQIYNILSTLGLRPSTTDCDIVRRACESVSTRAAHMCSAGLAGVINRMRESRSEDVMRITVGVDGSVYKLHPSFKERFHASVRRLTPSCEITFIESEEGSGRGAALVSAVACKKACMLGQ
Test: GK activity test (GK activation rate)
Format: biochemical
Settings: test compound 1 μM; glucose 5 mM; 30 min at room temperature; absorbance at 340 nm with test compound / without test compound
Procedure: cDNA encoding human pancreatic GK polypeptide (GenBank Accession No. NM_000162, human glucokinase variant 1) was cloned from a human cDNA library by polymerase chain reaction (PCR), and introduced into a glutathione S-transferase (GST)-fused protein expression vector (GEX4T, GE Healthcare Bioscience). The vector was introduced into Escherichia coli (such as BL21 or JM109, Invitrogen), and the transformed E. coli was cultured overnight at 37° C. followed by recovery of the cells. After freezing and thawing the recovered cells, the cells were suspended in phosphate buffer containing Triton-X at a final concentration of 1% followed by disrupting the cells with an ultrasonic homogenizer. The supernatant obtained by low-speed centrifugation treatment of the homogenate (10,000×g, 30 minutes) was further subjected to high-speed centrifugation (100,000×g, 10 minutes) followed by recovering the supernatant and purifying the fused protein using a GST fused protein purification system (Bulk GST Purification Module, GE Healthcare Bioscience). The GK fused protein was divided into smaller aliquots and stored at −80° C.
GK activity was measured using the GK purified in (1) above. More specifically, an enzyme solution was prepared by adding the purified GK of (1) above and glucose-6-phosphate dehydrogenase (Sigma) to solution 1 of a glucose assay kit (D-Glucose UV Method, Roche Diagnostics). The enzyme solution, a test compound diluent and glucose (final concentration: 5 mM) were mixed in a 96-well ELISA plate, and allowed to react for 30 minutes at room temperature. Following completion of the reaction, absorbance at a wavelength of 340 nm was measured using SpectraMax Plus (Molecular Probe). Furthermore, unreacted (when glucose was not added) absorbance was used for the background.
GK activation rates were indicated with values represented by the following numerical formula: (absorbance after reacting for 30 minutes when test compound added)/(absorbance after reacting for 30 minutes when test compound not added).

| Structure (SMILES) | GK Activation Rate |
| --- | --- |
| CNC(=O)c1ccc(Oc2cc(O[C@@H](C)COC)cc(-c3ccc(C4=NC[C@H](CO)O4)[nH]3)c2)cn1 [Example 126, 5-(3-{5-[(5R)-5-(Hydroxymethyl)-4,5-dihydro-1,3-oxazol-2-yl]-1H-pyrrol-2-yl}-5-[(1S)-2-methoxy-1-methylethoxy]phenoxy)-N-methylpyridine-2-carboxamide] | 2.6 |
| COC[C@H](C)Oc1cc(Oc2ccc(S(C)(=O)=O)cc2)cc(-c2ccc(C3=NCC(CO)O3)[nH]2)c1 (stereo partly drawn) [Example 29, [2-(5-{3-[(1S)-2-Methoxy-1-methylethoxy]-5-[4-(methylsulfonyl)phenoxy]phenyl}-1H-pyrrol-2-yl)-4,5-dihydro-1,3-oxazol-5-yl]methanol] | 2.0 |
| COC[C@H](C)Oc1cc(Oc2ccc(S(C)(=O)=O)nc2)cc(-c2ccc(C3=N[C@H]([C@H](C)O)CO3)[nH]2)c1 [Example 93, (1S)-1-{(4S)-2-[5-(3-[(1S)-2-Methoxy-1-methylethoxy]-5-{[6-(methylsulfonyl)pyridin-3-yl]oxy}phenyl)-1H-pyrrol-2-yl]-4,5-dihydro-1,3-oxazol-4-yl}ethanol] | 2.4 |
| C[C@@H]1COC(c2ccc(-c3cc(Oc4ccc(S(C)(=O)=O)nc4)cc(O[C@@H](C)CO)c3)[nH]2)=N1 [Example 84, (2S)-2-(3-{5-[(4R)-4-Methyl-4,5-dihydro-1,3-oxazol-2-yl]-1H-pyrrol-2-yl}-5-{-[6-(methylsulfonyl)pyridin-3-yl]oxy}phenoxy)propan-1-ol] | 2.7 |
| COC[C@H](C)Oc1cc(Oc2ccc(S(C)(=O)=O)nc2)cc(-c2ccc(C3=NC[C@H](CO)O3)[nH]2)c1 [Example 82, {(5R)-2-[5-(3-[(1S)-2-Methoxy-1-methylethoxy]-5-{[6-(methylsulfonyl)pyridin-3-yl]oxy}phenyl)-1H-pyrrol-2-yl]-4,5-dihydro-1,3-oxazol-5-yl}methanol] | 2.7 |
| C[C@@H]1OC(c2ccc(-c3cc(Oc4cnc(S(C)(=O)=O)cn4)cc(O[C@@H](C)CO)c3)[nH]2)=N[C@@H]1C [Example 109, (2S)-2-(3-{5-[(4R,5S)-4,5-Dimethyl-4,5-dihydro-1,3-oxazol-2-yl]-1H-pyrrol-2-yl}-5-{[5-(methylsulfonyl)pyrazin-2-yl]oxy}phenoxy)propan-1-ol] | 2.2 |
| CC[C@@H]1COC(c2ccc(-c3cc(Oc4cnc(S(C)(=O)=O)cn4)cc(O[C@@H](C)CO)c3)[nH]2)=N1 [Example 108, (2S)-2-(3-{5-[(4R)-4-Ethyl-4,5-dihydro-1,3-oxazol-2-yl]-1H-pyrrol-2-yl}-5-{[5-(methylsulfonyl)pyrazin-2-yl]oxy}phenoxy)propan-1-ol] | 2.0 |
| COC[C@H](C)Oc1cc(Oc2ccc(S(C)(=O)=O)cc2)cc(-c2ccc(C3=NC[C@@H](C)O3)[nH]2)c1 [Example 33, (5R)-2-(5-{3-[(1S)-2-Methoxy-1-methylethoxy]-5-[4-(methylsulfonyl)phenoxy]phenyl}-1H-pyrrol-2-yl)-5-methyl-4,5-dihydro-1,3-oxazole] | 1.7 |
| COC[C@H](C)Oc1cc(Oc2cnc(S(C)(=O)=O)cn2)cc(-c2ccc(C3=NC(O)[C@H](C)O3)[nH]2)c1 (stereo partly drawn) [Example 103, (5S)-2-[5-(3-[(1S)-2-Methoxy-1-methylethoxy]-5-{[5-(methylsulfonyl)pyrazin-2-yl]oxy}phenyl)-1H-pyrrol-2-yl]-5-methyl-4,5-dihydro-1,3-oxazol-4-ol] | 2.1 |
| COC[C@H](C)Oc1cc(Oc2ncc(C(=O)N3CCC3)cc2Cl)cc(-c2ccc(C3=NCCO3)[nH]2)c1 [Example 73, 5-(Azetidin-1-ylcarbonyl)-3-chloro-2-{3-[5-(4,5-dihydro-1,3-oxazol-2-yl)-1,4-pyrrol-2-yl]-5-[(1S)-2-methoxy-1-methylethoxy]phenoxyl}pyridine] | 2.0 |
| Cc1nnc(-c2ccc(-c3cc(Oc4cnc(S(C)(=O)=O)cn4)cc(O[C@@H](C)CO)c3)[nH]2)o1 [Example 98, (2S)-2-(3-[5-(5-Methyl-1,3,4-oxadiazol-2-yl)-1H-pyrrol-2-yl]-5-{[5-(methylsulfonyl)pyrazin-2-yl]oxy}phenoxy)propan-1-ol] | 1.9 |
| Cc1nnc(-c2ccc(-c3cc(Oc4ccc(C(=O)N5CCC5)cc4F)cc(O[C@@H](C)CO)c3)[nH]2)o1 [Example 67, (2S)-2-{3-[4-(Azetidin-1-ylcarbonyl)-2-fluorophenoxy]-5-[5-(5-methyl-1,3,4-oxadiazol-2-yl)-1H-pyrrol-2-yl]phenoxy}propan-1-ol] | 1.7 |
| CC[C@@H]1COC(c2ccc(-c3cc(Oc4ccc(S(C)(=O)=O)nc4)cc(O[C@@H](C)CO)c3)[nH]2)=N1 [Example 85, (2S)-2-(3-{5-[(4R)-4-Ethyl-4,5-dihydro-1,3-oxazol-2-yl]-1H-pyrrol-2-yl}-5-{[6-(methylsulfonyl)pyridin-3-yl]oxy}phenoxy)propan-1-ol] | 2.9 |
| COC[C@H](C)Oc1cc(Oc2cnc(C(=O)N3CCN(C)CC3)cn2)cc(-c2ccc(-c3nccs3)[nH]2)c1 [Example 64, 2-{3-[(1S)-2-Methoxy-1-methylethoxy]-5-[5-(1,3-thiazol-2-yl)-1H-pyrrol-2-yl]phenoxy}-5-[(4-methylpiperazin-1-yl)carbonyl]pyrazine] | 1.9 |
| C[C@@H](CO)Oc1cc(Oc2ccc(S(C)(=O)=O)cc2)cc(-c2ccc(-c3nccs3)[nH]2)c1 [Example 2, (2S)-2-{3-[4-(Methylsulfonyl)phenoxy]-5-[5-(1,3-thiazol-2-yl)-1H-pyrrol-2-yl]phenoxy}propan-1-ol] | 1.9 |
| COC[C@H](C)Oc1cc(Oc2ccc(S(C)(=O)=O)nc2)cc(-c2ccc(-c3nccs3)[nH]2)c1 [Example 65, 5-{3-[(1S)-2-Methoxy-1-methylethoxy]-5-[5-(1,3-thiazol-2-yl)-1H-pyrrol-2-yl]phenoxy}-2-(methylsulfonyl)pyridine] | 2.4 |
| COC[C@H](C)Oc1cc(Oc2cnc(S(C)(=O)=O)cn2)cc(-c2ccc(C3=N[C@H]([C@@H](C)O)CO3)[nH]2)c1 [Example 114, (1R)-1-{(4S)-2-{[5-(3-[(2S)-1-Methoxypropan-2-yl]oxy}-5-{[5-(methylsulfonyl)pyrazin-2-yl]oxy}phenyl)-1H-pyrrol-2-yl]-4,5-dihydro-1,3-oxazol-4-yl}ethanol] | 2.2 |
| C[C@@H]1OC(c2ccc(-c3cc(Oc4ccc(S(C)(=O)=O)nc4)cc(O[C@@H](C)CO)c3)[nH]2)=N[C@@H]1C [Example 88, (2S)-2-(3-{5-[(4R,5S)-4,5-Dimethyl-4,5-dihydro-1,3-oxazol-2-yl]-1H-pyrrol-2-yl}-5-{[6-(methylsulfonyl)pyridin-3-yl]oxy}phenoxy)propan-1-ol] | 2.4 |
| C[C@H]1CN=C(c2ccc(-c3cc(Oc4ccc(S(C)(=O)=O)nc4)cc(O[C@@H](C)CO)c3)[nH]2)O1 [Example 77, (2S)-2-(3-{5-[(5S)-5-Methyl-4,5-dihydro-1,3-oxazol-2-yl]-1H-pyrrol-2-yl}-5-{[6-(methylsulfonyl)pyridin-3-yl]oxy}phenoxy)propan-1-ol] | 2.6 |
| COC[C@H](C)Oc1cc(Oc2ccc(S(C)(=O)=O)cc2)cc(-c2ccc(-c3nccs3)[nH]2)c1 [Example 1, 2-(5-{3-[(1S)-2-Methoxy-1-methylethoxy]-5-[4-(methylsulfonyl)phenoxy]phenyl}-1H-pyrrol-2-yl)-1,3-thiazole] | 2.0 |
| C[C@H]1CN=C(c2ccc(-c3cc(Oc4ccc(S(C)(=O)=O)cc4)cc(O[C@@H](C)CO)c3)[nH]2)O1 [Example 32, (2S)-2-(3-{5-[(5S)-5-Methyl-4,5-dihydro-1,3-oxazol-2-yl]-1H-pyrrol-2-yl}-5-[4-(methylsulfonyl)phenoxy]phenoxy)propan-1-ol] | 2.0 |
| CNC(=O)c1ccc(Oc2cc(O[C@@H](C)CO)cc(-c3ccc(C4=NC[C@H](C)O4)[nH]3)c2)cn1 [Example 123, 5-(3-[(1S)-2-Hydroxy-1-methylethoxy]-5-{5-[(5S)-5-methyl-4,5-dihydro-1,3-oxazol-2-yl]-1H-pyrrol-2-yl}phenoxy)-N-methylpyridine-2-carboxamide] | 2.6 |
